Reference: ChEMBL document CHEMBL4043262, “Plasma-induced dimerization of phloridzin as a new class of anti-adipogenic agents” (Bioorg Med Chem Lett, 2017)
Values belong to the compound of their own block, whether it stands above or below them.

Assays:
[1] = system: 3T3-L1; test: Anti-adipogenic activity in mouse 3T3L1 cells assessed as reduction in lipid accumulation at 50 uM administered for 8 days measured post last dose by Oil Red O staining based assay relative to control; format: functional; design: scale not given: the % may be the effect or the level left
[2] = system: 3T3-L1; test: Anti-adipogenic activity in mouse 3T3L1 cells assessed as reduction in lipid accumulation at 100 uM administered for 8 days measured post last dose by Oil Red O staining based assay relative to control; format: functional; design: scale not given: the % may be the effect or the level left
[3] = system: 3T3-L1; test: Anti-adipogenic activity in mouse 3T3L1 cells assessed as reduction in lipid accumulation at 25 uM administered for 8 days measured post last dose by Oil Red O staining based assay relative to control; format: functional; design: scale not given: the % may be the effect or the level left
[4] = biological target: T1, Pancreatic triacylglycerol lipase (Sus scrofa, UniProt P00591); test: Inhibition of porcine pancreatic lipase using p-nitrophenyl butyrate as substrate pretreated for 15 mins followed by substrate addition measured after 15 mins by spectrophotometric method
T1 sequence (P00591 whole entry): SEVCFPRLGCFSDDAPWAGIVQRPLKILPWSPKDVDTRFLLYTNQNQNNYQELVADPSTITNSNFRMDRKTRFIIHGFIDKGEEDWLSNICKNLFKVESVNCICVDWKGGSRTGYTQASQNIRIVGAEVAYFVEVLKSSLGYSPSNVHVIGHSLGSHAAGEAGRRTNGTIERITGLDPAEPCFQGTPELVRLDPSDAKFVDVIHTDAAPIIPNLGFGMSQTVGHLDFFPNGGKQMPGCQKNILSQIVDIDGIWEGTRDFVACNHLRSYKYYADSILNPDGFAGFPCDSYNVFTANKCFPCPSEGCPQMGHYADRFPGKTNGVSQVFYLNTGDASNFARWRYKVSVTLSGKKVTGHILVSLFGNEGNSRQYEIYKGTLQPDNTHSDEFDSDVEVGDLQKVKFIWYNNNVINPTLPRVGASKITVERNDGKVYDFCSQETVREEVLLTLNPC

[5] = system: 3T3-L1; test: Cytotoxicity against mouse 3T3L1 cells up to 48 hrs by MTT assay; format: cell-based; conditions: 3t3-l1, 48 h
[6] = biological target: T1, Pancreatic triacylglycerol lipase; test: Inhibition of porcine pancreatic lipase using p-nitrophenyl butyrate as substrate pretreated for 15 mins followed by substrate addition measured after 15 mins in presence of plasma by spectrophotometric method

SMILES: O=C(CCc1ccc(O)cc1)c1c(O)cc(O)c(Cc2c(O)cc(O)c(C(=O)CCc3ccc(O)cc3)c2O)c1O
Activity [1]: 45.7% | Activity [2]: 36.5% | Activity [3]: 60.3% | IC50 [4]: 5.2 µM | Activity [5]: Non-Toxic

SMILES: O=C(CCc1ccc(O)cc1)c1c(O[C@@H]2O[C@H](CO)[C@@H](O)[C@H](O)[C@H]2O)cc(O)c(Cc2c(O)cc(O[C@@H]3O[C@H](CO)[C@@H](O)[C@H](O)[C@H]3O)c(C(=O)CCc3ccc(O)cc3)c2O)c1O
IC50 [4]: 257 µM | Activity [5]: Non-Toxic

SMILES: O=C(CCc1ccc(O)cc1)c1c(O)cc(O)c(Cc2c(O)cc(O[C@@H]3O[C@H](CO)[C@@H](O)[C@H](O)[C@H]3O)c(C(=O)CCc3ccc(O)cc3)c2O)c1O
IC50 [4]: 14.7 µM | Activity [5]: Non-Toxic

Further lines, with some results ahead:

IC50 [4]: 50.4 µM
SMILES: O=C(CCc1ccc(O)cc1)c1c(O)cc(O)cc1O [PHLORETIN]
Activity [5]: Non-Toxic

IC50 [4]: > 300 µM | IC50 [6]: 68.3 µM
SMILES: O=C(CCc1ccc(O)cc1)c1c(O)cc(O)cc1O[C@@H]1O[C@H](CO)[C@@H](O)[C@H](O)[C@H]1O [PHLORIZIN]
Activity [5]: Non-Toxic
